Structures are written as SMILES.

We go through one compound from patent publication US11213514B2, “Alpha-1-adrenergic receptor agonist therapy” (The Regents of the University of California, priority 2016, dated 2022).

In data set [1] the test system is neonatal rat ventricular myocytes. As to the kind of experiment: Myocyte death caused by oxidative stress with H2O2. The data set is classed as cell-based. The conditions noted are these: neonatal rat ventricular myocytes (FIG. 7).
Data set [2] concerns wild type mice. The data set is described as follows: Tail cuff blood pressure and heart rate in uninjured mice. Type of data set: in vivo, mouse. The conditions noted are these: any dose 1-100 μg/kg/day, gavage twice daily for 5 days. The method, then:
(§1) FIGS. 1A-1C. […] FIG. 1A. Blood pressure (BP) and heart rate (HR) were measured non-invasively in male mice for 10 consecutive days using a CODA Volume Pressure Recording tail cuff system (Kent Scientific). All daily values represent the average of at least 20 cuff inflations. Mice were acclimatized to the apparatus for the first 5 days, during which no drug was administered. […] FIG. 1B. […] Heart weight (HW, in mg) was indexed to tibia length (TL, in mm). FIG. 1C. Quantitative RT-PCR was performed using heart tissue snap frozen at the time of sacrifice. Target transcripts (ANP=atrial natriuretic peptide; MHCβ=myosin heavy chain beta; α-skAct=alpha skeletal actin) were quantified relative to two standard transcripts (Polr2a=DNA-directed RNA polymerase II, subunit A; TBP=TATA-binding protein).
Untreated mice were trained on the tail cuff apparatus daily for 5 days.
Tail cuff blood pressure (BP) and heart rate (HR) were obtained on awake mice by repeated measurements using a CODA Volume Pressure Recording tail cuff system (Kent Scientific).2 Mice were trained to the apparatus for 5 days prior to data collection. Systolic BP and HR measurements represent the average of at least 20 tail cuff inflations per mouse each afternoon.

For another data set, the system named is mouse heart. As to the kind of experiment: Pressure overload cardiomyopathy caused by transverse aortic constriction. The data set is classed as in vivo. As to conditions: mice, TAC day 0, osmotic minipumps from 4 weeks; both doses 20 ug/kg/d and 200 ug/kg/d; day 55. The method, then: FIG. 8. […] Cardiac function was measured before TAC, and every 2 weeks, using echocardiography.

The test system of data set [3] is wild type mice. The data set is described as follows: Indexed heart weight after 7-day gavage treatment in uninjured mice. As to conditions: for Body weight, final / Heart weight / Heart weight/tibia length / Heart/body weight: uninjured wild type mice, 7 days. Type of data set: in vivo, mouse. The procedure: as §1
Setting [4] is: any dose 1-100 μg/kg/day, gavage twice daily for 7 days.

Take `Cc1c(OCC2=NCCN2)ccc(Cl)c1NS(C)(=O)=O` [dabuzalgron, N-[6-chloro-3-(4,5-dihydro-1H-imidazol-2-ylmethoxy)-2-methylphenyl]methanesulfonamide]: the “myocyte death caused by oxidative stress with H2O2” value in data set [1] is recorded as “prevents”. In addition, in the data set on wild type mice [2], the HR vs vehicle entry was “no difference” and the “systolic BP vs vehicle” value was “no difference”. The “cardiac function (fractional shortening) compared with vehicle” value in the data set on mouse heart is on record as “significant improvement”. In the data set with wild type mice [3] (setting [4]), the “change in body weight” value is “no measurable change” and the “change in heart weight” value is listed as “no measurable change”. Moreover, in the data set on wild type mice [3] (0.2 μg/kg/day gavage), the “Body weight, final” value was found to be 25.3 ± 0.4 g; the Heart weight was determined as 106 ± 4 mg; the Heart weight/tibia length came out at 6.1 ± 0.3 mg/mm; the Heart/body weight was determined as 0.42 ± 0.01%. In the data set on wild type mice [3] (2 μg/kg/day gavage), the “Body weight, final” value came to 25.9 ± 0.8 g; the Heart weight is recorded as 106 ± 4 mg; the Heart weight/tibia length came to 6.1 ± 0.2 mg/mm; the Heart/body weight is 0.41 ± 0.02%. In the data set with wild type mice [3] (20 μg/kg/day gavage), the “Body weight, final” value came out at 27.3 ± 1.1 g; the Heart weight is reported as 110 ± 4 mg; the Heart weight/tibia length is 5.9 ± 0.2 mg/mm; the Heart/body weight was 0.41 ± 0.01%. In addition, in the data set with wild type mice [3] (200 μg/kg/day gavage), the “Body weight, final” value is recorded as 27.4 ± 1.6 g; the Heart weight is listed as 113 ± 6 mg; the Heart weight/tibia length stood at 6.1 ± 0.3 mg/mm; the Heart/body weight came out at 0.41 ± 0.01%.
